Calls of active or inactive are those of the source. Rule as the data show it, for most assays here: actives have a measured EC50 and inactives only a lower limit.
Columns and labels:
[1] = target: Tyrosine-protein phosphatase non-receptor type 11 (Homo sapiens, UniProt Q06124); assay: SHP2 phosphatase inhibition, dose response, selectivity assay for STEP inhibitor project, biochemical (AID 602367); format: functional; conditions: read-out: IC50_Mean
[2] = target: Tyrosine-protein phosphatase non-receptor type 5 (Homo sapiens, UniProt P54829); assay: STEP phosphatase inhibitors, confirmation, biochemical, fluorescence intensity, uHTS hits (AID 602372); format: functional; conditions: read-out: IC50_Mean
Chain of Tyrosine-protein phosphatase non-receptor type 5 (P54829 whole entry): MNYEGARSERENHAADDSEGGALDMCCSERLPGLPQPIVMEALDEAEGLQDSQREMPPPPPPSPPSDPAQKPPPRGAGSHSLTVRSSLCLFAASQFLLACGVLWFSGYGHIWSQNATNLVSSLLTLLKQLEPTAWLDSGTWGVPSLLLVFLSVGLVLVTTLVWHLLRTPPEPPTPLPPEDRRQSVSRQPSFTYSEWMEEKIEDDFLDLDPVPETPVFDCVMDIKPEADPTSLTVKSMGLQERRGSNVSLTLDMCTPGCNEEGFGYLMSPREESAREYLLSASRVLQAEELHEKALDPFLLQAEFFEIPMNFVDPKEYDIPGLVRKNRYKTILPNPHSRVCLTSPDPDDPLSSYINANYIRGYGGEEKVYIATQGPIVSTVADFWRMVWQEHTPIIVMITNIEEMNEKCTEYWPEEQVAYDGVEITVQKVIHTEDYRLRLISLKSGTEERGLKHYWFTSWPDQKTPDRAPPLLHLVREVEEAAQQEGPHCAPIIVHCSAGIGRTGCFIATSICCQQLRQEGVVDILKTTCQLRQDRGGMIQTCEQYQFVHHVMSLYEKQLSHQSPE

[3] = target: Dual specificity protein phosphatase 3 (Homo sapiens, UniProt P51452); assay: VHR phosphatase inhibition, dose response, selectivity assay for STEP inhibitor project, biochemical (AID 602374); format: functional; conditions: read-out: IC50_Mean
Chain of Dual specificity protein phosphatase 3 (P51452 whole entry): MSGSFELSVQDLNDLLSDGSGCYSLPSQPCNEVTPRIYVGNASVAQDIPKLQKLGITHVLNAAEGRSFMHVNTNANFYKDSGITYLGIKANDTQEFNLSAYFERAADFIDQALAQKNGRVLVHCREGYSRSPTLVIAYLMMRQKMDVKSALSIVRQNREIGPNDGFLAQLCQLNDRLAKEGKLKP

[4] = target: Adenosylmethionine-8-amino-7-oxononanoate aminotransferase (Mycobacterium tuberculosis, UniProt P9WQ81); assay: Mycobacterium tuberculosis BioA enzyme inhibitor Measured in Biochemical System Using Plate Reader - 2163-02_Inhibitor_Dose_CherryPick_Activity.; format: functional, Mycobacterium tuberculosis UT205
Chain of Adenosylmethionine-8-amino-7-oxononanoate aminotransferase (P9WQ81 whole entry): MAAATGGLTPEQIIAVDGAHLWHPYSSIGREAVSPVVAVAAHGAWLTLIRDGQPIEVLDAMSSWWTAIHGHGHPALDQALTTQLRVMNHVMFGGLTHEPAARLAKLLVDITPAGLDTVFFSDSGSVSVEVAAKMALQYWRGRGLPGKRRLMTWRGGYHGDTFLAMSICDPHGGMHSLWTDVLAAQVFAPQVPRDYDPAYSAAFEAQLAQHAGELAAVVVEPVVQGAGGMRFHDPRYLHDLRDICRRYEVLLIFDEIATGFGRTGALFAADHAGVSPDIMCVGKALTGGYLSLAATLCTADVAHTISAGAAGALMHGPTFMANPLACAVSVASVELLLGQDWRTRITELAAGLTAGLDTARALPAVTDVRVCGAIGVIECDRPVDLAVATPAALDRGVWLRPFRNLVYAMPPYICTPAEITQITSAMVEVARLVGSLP

Interleukin-8 [5] = target: T1, Interleukin-8 (Homo sapiens, UniProt P10145); assay: Dose Response confirmation of uHTS small molecule hits for cystic fibrosis induced NFkb Inhibitors in a TNFa-induced IL8 counterscreen.; format: functional; conditions: read-out: IC50_Mean
T1 sequence (P10145 whole entry): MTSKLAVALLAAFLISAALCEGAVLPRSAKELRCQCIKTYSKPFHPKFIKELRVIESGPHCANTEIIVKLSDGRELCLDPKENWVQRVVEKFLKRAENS

Interleukin-8 [6] = target: T1, Interleukin-8; assay: Dose Response confirmation of uHTS small molecule hits for cystic fibrosis induced NFkb Inhibitors in a PAF-induced IL8 counterscreen.; format: functional; conditions: read-out: IC50_Mean
[7] = HEp-2 cell cytotoxicity, dose response, cytotoxicity control for RSV inhibitor project, HTS (AID 2410); format: functional; conditions: human respiratory syncytial virus
[8] = target: Mitochondrial peptide methionine sulfoxide reductase (Bos taurus, UniProt P54149); format: functional;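 also: absorbance read-out, biochemical high-throughput dose-response screen for MsrA inhibitors, confirmatory; recombinant bovine MsrA coupled to E. coli TrxB with NADPH and selenocystamine; potency is for inhibitors of MsrA activity on DMSO substrate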
Chain of Mitochondrial peptide methionine sulfoxide reductase (P54149 whole entry): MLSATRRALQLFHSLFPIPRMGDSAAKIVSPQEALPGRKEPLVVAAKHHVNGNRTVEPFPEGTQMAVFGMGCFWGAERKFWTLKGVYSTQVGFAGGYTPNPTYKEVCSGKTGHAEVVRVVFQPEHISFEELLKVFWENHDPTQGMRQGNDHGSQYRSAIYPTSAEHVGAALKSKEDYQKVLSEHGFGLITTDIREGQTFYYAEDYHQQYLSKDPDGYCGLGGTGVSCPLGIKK

[9] = NIH-3T3 fibroblast cytotoxicity, dose response, cytotoxicity control, cell-based, fluorescence, Alamar Blue, secondary assay (AID 2327); format: functional;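 also: NIH-3T3 mouse fibroblasts cultured with fluconazole at 8 µg/mL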
[10] = system: Streptococcus sp. 'group A'; assay: growth inhibition of control SK(-) GAS strain, dose response, counter-screen for streptokinase expression inhibitor project, luminescence, kanamycin, BacTiterGlo, confirmation (AID 1900); format: functional, organism-based
BJ [11] = assay: cytotoxicity toward BJ-TERT fibroblasts, dose response, cell-based, RAS-independent, luminescence (AID 1933); format: functional; conditions: Homo sapiens
[12] = target: Luciferin 4-monooxygenase (Photinus pyralis, UniProt P08659); assay: Counter Screen for Luciferase-based Assay Positives. [Related pubchem assays: 620, 618, 411 ]
Chain of Luciferin 4-monooxygenase (P08659 whole entry): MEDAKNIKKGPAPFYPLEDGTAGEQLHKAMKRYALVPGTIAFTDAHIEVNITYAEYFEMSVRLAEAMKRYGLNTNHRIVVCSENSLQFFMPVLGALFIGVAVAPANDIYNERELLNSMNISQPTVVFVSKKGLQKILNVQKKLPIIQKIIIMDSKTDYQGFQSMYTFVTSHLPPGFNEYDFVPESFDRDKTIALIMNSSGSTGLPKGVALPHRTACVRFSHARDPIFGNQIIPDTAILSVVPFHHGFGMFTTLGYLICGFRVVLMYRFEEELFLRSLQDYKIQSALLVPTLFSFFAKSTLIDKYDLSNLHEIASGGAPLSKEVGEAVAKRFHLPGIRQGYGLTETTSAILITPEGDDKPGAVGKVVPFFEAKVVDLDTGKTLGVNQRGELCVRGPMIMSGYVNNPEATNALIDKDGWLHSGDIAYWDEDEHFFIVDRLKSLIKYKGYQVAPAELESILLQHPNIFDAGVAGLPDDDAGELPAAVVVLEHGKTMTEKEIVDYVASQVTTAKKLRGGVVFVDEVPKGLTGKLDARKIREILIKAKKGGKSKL

cells [13] = format: functional, cell-based
Streptokinase A = target: T2, Streptokinase A (Streptococcus pyogenes serotype M1, UniProt P10520); assay: S. pyogenes streptokinase expression inhibitors, potency, dose response, plasminogen activation absorbance, OD405 (AID 1914); format: functional, Streptococcus pyogenes M1 GAS;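 also: secreted streptokinase activity via plasminogen activation per viability signal from cell pellet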
T2 sequence (P10520 whole entry): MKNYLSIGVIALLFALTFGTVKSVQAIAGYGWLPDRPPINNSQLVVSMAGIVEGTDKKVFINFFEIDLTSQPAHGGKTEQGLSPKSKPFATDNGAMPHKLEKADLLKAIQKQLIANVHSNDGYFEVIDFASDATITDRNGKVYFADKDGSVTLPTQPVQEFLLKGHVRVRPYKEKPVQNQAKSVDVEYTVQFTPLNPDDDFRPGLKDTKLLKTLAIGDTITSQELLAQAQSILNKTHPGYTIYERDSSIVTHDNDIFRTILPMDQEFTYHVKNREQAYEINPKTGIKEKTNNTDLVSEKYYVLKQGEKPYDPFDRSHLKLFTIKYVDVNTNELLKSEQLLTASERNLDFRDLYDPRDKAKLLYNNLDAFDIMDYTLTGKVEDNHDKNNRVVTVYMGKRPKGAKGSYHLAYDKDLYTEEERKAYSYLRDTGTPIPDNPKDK

BJ [14] = assay: cells; format: functional, cell-based; conditions: Homo sapiens
[15] = C. albicans growth with fluconazole, confirmation, fluorescence, retest (AID 2467); format: functional, cell-based
cells [16] = format: functional, cell-based; remark: listed apart in the source
[17] = growth suppression of PTEN-null colon cells, dose response, cell-based, HCT116 PTEN knockout (AID 1047); format: functional;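 also: HCT116 colon tumor cells with PTEN knocked out; cells exposed to compound for 60 hours before readout; potency for loss of cell viability measured by luminescence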
[18] = target: T3, Serine/threonine-protein phosphatase (Candida dubliniensis (strain CD36 / CBS 7987 / NCPF 3949 / NRRLY-17841) (Yeast), UniProt B9W6M3); assay: calcineurin pathway inhibitors in yeast reporter, dose response, S. cerevisiae, CDRE-lacZ, luminescence, secondary (AID 2388); format: functional, cell-based;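 also: yeast reporter cells carrying a calcineurin-responsive lacZ construct stimulated with calcium chloride; luminescent beta-galactosidase reporter signal in whole cells rather than isolated phosphatase activity; potency for inhibition where a drop in reporter signal means calcineurin blockade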
T3 sequence (B9W6M3 whole entry): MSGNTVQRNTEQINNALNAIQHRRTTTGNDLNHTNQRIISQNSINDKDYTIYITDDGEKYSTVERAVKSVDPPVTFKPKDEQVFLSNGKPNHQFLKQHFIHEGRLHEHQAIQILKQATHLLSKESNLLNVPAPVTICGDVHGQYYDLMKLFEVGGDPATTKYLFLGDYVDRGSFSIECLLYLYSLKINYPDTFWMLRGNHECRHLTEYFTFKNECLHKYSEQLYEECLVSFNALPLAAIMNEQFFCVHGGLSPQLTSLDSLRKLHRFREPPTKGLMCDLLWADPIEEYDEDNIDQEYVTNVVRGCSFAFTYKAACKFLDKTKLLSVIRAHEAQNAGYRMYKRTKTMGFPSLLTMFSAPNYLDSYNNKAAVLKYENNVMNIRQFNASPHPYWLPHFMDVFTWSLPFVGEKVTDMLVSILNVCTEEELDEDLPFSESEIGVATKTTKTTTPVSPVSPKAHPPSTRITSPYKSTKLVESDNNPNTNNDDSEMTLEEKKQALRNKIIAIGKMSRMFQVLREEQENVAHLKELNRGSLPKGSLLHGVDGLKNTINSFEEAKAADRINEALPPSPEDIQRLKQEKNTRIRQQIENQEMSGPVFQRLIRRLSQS

HT-1080 = assay: cytotoxicity in HT1080 fibrosarcoma cells, cell-based, fluorescence readout (AID 620); format: functional; conditions: Homo sapiens
[19] = growth suppression of beta-catenin-knockout colon cells, dose response, cell-based, HCT116, human colon tumor (AID 1045); format: functional;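 also: HCT116 colon tumor cells with beta catenin knocked out; cells exposed to compound for 60 hours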
BJ [20] = assay: cytotoxicity toward BJ-TERT-LT-ST fibroblasts, dose response, cell-based, RAS-independent, luminescence (AID 1935); format: functional; conditions: Homo sapiens;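 also: BJ fibroblasts immortalized with TERT plus LT and ST oncogenes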
[21] = cytotoxicity toward DRD oncogenic fibroblasts, dose response, cell-based, non-viral oncogenic, luminescence (AID 1934); format: functional; conditions: Homo sapiens
Streptococcus = assay: Group A Streptococcus viability loss, dose response, counter-screen for streptokinase expression inhibitor project, luminescence, BacTiterGlo (AID 1915); format: functional, organism-based;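 also: potency for reduction of bacterial viability or growth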
Nonstructural protein 1 = Nonstructural protein 1 (Influenza A virus, UniProt Q194T2); format: functional, Influenza A virus (A/California/07/2009(H1N1))
Chain of Nonstructural protein 1 (Q194T2 whole entry): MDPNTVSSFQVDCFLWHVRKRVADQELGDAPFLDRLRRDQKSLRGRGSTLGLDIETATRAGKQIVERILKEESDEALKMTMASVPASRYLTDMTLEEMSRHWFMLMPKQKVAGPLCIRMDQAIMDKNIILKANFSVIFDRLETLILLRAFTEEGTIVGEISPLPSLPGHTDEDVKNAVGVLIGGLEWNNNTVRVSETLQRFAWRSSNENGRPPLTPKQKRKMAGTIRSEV

[22] = target: Heat shock protein HSP 90-alpha (Homo sapiens, UniProt P07900); format: functional, organism-based
[23] = target: ATP-dependent molecular chaperone HSP82 (Candida albicans (strain WO-1) (Yeast), UniProt C4YTQ8); assay: loss of DOC-induced GRE-beta-galactosidase reporter signal, dose response, Hsp90 inhibitor project, S. cerevisiae, luminescence (AID 2400); format: functional, cell-based;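 also: beta-galactosidase luminescence from glucocorticoid response element reporter as proxy for Hsp90 function; inhibitor potency where signal loss means Hsp90 inhibition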
Chain of ATP-dependent molecular chaperone HSP82 (C4YTQ8 whole entry): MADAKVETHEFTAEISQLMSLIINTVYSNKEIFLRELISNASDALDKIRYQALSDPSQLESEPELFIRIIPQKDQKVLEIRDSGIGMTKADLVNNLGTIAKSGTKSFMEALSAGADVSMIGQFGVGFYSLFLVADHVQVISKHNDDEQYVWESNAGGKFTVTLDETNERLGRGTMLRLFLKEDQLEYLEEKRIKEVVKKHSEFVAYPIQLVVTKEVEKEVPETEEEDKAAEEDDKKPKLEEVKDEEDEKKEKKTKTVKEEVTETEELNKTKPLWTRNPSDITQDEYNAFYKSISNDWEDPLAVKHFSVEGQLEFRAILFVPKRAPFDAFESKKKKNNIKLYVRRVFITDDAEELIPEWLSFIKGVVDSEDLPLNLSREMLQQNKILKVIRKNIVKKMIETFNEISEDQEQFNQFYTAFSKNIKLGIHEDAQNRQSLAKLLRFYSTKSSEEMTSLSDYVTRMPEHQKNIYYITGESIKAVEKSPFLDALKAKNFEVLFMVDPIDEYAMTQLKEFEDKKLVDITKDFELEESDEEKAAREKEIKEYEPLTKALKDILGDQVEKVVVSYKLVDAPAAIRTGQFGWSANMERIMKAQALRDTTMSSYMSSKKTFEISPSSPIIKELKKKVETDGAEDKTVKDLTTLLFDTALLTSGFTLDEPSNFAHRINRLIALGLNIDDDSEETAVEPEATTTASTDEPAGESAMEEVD

[24] = NIH-3T3 fibroblast cytotoxicity, dose response, cytotoxicity control for antifungal single agent project, cell-based, Alamar Blue, dry powder (AID 602188); format: functional
[25] = AlphaScreen signal interference compounds, dose response, artefact control for ARNT-TACC3 interaction inhibitor project, biochemical, luminescence, cherry-pick (AID 651705); format: functional;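 also: AlphaScreen bead proximity signal that flags compounds interfering with the detection technology; potency reflects signal decrease which marks the compound as an assay artifact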

Chain of Tyrosine-protein phosphatase non-receptor type 11 (Q06124 whole entry): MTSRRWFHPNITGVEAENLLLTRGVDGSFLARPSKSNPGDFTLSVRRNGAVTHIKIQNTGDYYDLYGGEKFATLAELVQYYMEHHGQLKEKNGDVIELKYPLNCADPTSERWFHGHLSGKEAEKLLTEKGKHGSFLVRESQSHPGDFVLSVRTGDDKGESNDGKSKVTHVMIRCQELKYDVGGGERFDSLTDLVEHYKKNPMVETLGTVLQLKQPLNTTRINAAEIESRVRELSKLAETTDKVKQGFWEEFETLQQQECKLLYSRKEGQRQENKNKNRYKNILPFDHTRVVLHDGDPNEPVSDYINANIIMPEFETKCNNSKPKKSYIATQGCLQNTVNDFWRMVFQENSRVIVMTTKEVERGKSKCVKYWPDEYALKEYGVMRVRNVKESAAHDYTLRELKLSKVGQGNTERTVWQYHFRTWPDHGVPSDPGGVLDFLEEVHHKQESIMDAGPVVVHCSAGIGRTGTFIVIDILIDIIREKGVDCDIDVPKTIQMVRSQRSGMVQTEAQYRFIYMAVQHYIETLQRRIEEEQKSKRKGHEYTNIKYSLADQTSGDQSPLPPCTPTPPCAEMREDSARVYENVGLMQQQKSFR

## O=C(NN=Cc1ccccc1O)NN=Cc1ccccc1O
[1]
  IC50: 3.93 µM (active)
[2]
  IC50: 10.1 µM (active)
[3]
  IC50: 4.05 µM (active)

## C/C=C(/C)C(=O)OC(C)(C)[C@@H]1Cc2c(ccc3ccc(=O)oc23)O1 [COLUMBIANADIN]
[4]
  AC50: 0.389 µM (active)

## C=CC(=O)Nc1cccc(Oc2[nH]cnc3ncc(-c4cnc5ccccc5c4)c2-3)c1
Interleukin-8 [5]
  IC50: 3.39 µM (active)
Interleukin-8 [6]
  IC50: 2.52 µM (active)

## C/C(N)=C(/C#N)C(=O)CSc1nn(-c2ccc(Cl)cc2)c(=S)s1
[7]
  CC50: 15.9 µM (active)
[8]
  IC50: 155 µM (inactive)

## Oc1c(CN2CCc3ccccc3C2)cc(Cl)c2cccnc12
[9]
  EC50: > 160 µM (inactive)
[10]
  EC50: 2.95 µM (active)
BJ [11]
  EC50: 8.6 µM (active)
[12]
  EC50: 17.7 µM (active)
Cells [13]
  EC50: > 350 µM (not active)
Streptokinase A
  EC50: > 150 µM (not active)
BJ [14]
  EC50: 10.9 µM (active)
[15]
  EC50: 0.712 µM (active)
Cells [16]
  EC50: > 350 µM (not active)
[17]
  EC50: 1.03 µM (active)
[18]
  EC50: > 180 µM (inactive)
HT-1080
  EC50: 22.2 µM (active)
[19]
  EC50: 0.973 µM (active)
BJ [20]
  EC50: 8.45 µM (inconclusive)
[21]
  EC50: 6.01 µM (active)
Streptococcus
  EC50: 9.33 µM (active)
Nonstructural protein 1
  IC50: 11.1 µM (active)
[22]
  AC50: 7.67 µM (active)
[23]
  EC50: > 160 µM (inactive)
[24]
  AC50: < 0.1 µM (active)

## O=C(CSc1cccc2cccnc12)Nc1cc(C(=O)O)cc(C(=O)O)c1
[25]
  AC50: 104 µM (active)

— ChEMBL document CHEMBL1201862, “PubChem BioAssay data set” (2004)
